Data: the supplement of paper PMC9103864

Key:
[1] = system: BMSC (primary human bone marrow mesenchymal stromal cells); experiment: absolute EC50 for viability; higher = less sensitive
[2] = system: BMSC (primary human bone marrow mesenchymal stromal cells); experiment: drug sensitivity score (DSS); higher = more sensitive

With `CCCCC(=O)OCC(=O)[C@]1(O)Cc2c(O)c3c(c(O)c2[C@@H](O[C@H]2C[C@H](NC(=O)C(F)(F)F)[C@H](O)[C@H](C)O2)C1)C(=O)c1c(OC)cccc1C3=O` [Valrubicin] the “absolute EC50 for viability” value [1] was 0.489 µM and the drug sensitivity score [2] was 10.8.

For `Cn1cnc2c(F)c(Nc3ccc(Br)cc3F)c(C(=O)NOCCO)cc21` [Binimetinib], the “absolute EC50 for viability” value [1] was > 1 µM and the drug sensitivity score [2] was 1.9.

With `Cc1ccc(F)c(NC(=O)Nc2ccc(-c3cccc4[nH]nc(N)c34)cc2)c1` [Linifanib] the “absolute EC50 for viability” value [1] was > 1 µM and the drug sensitivity score [2] was 0.

`Cc1cc(Nc2cc(N3CCN(C)CC3)nc(/C=C/c3ccccc3)n2)n[nH]1` [ENMD-2076] was tested, and the “absolute EC50 for viability” value [1] was 0.897 µM and the drug sensitivity score [2] was 11.5.

For `CNC(=O)c1ccccc1Sc1ccc2c(/C=C/c3ccccn3)n[nH]c2c1` [Axitinib], the “absolute EC50 for viability” value [1] was > 10 µM and the drug sensitivity score [2] was 7.9.

`COc1ccc2[nH]cc(/C=C3\C(=O)Nc4ccc(NC(=O)CCN5CCCCC5)cc43)c2c1` was tested, and the “absolute EC50 for viability” value [1] was 7.38 µM and the drug sensitivity score [2] was 9.6.

In the case of `O=C(Nc1c[nH]nc1-c1nc2ccc(CN3CCOCC3)cc2[nH]1)NC1CC1` [AT9283], the “absolute EC50 for viability” value [1] is reported as 0.254 µM and the drug sensitivity score [2] is reported as 6.

For `Cc1cc(-c2nc(-c3ccc(OC(F)(F)F)cc3)no2)nn1Cc1ccnc(N2CCN(C3CC3)CC2)c1` [BAY 87-2243], the “absolute EC50 for viability” value [1] was > 1 µM and the drug sensitivity score [2] was 0.

With `CCS(=O)(=O)N1CCN(c2ccc(Nc3ncc(C(N)=O)c(NC4CC4)n3)cc2)CC1` [Cerdulatinib] the “absolute EC50 for viability” value [1] was > 10 µM and the drug sensitivity score [2] was 5.1.

In the case of `CC[C@@H](C(=O)[C@@H](C)[C@@H](O)[C@H](C)[C@@H]1O[C@@H]([C@@H](CC)C(=O)O)CC[C@@H]1C)[C@H]1O[C@]2(C=C[C@@H](O)[C@]3(CC[C@@](C)([C@H]4CC[C@](O)(CC)[C@H](C)O4)O3)O2)[C@H](C)C[C@@H]1C` [Salinomycin], the “absolute EC50 for viability” value [1] is reported as 1.53 µM and the drug sensitivity score [2] is reported as 16.8.

For `C=CC[C@@H]1/C=C(\C)C[C@H](C)C[C@H](OC)[C@H]2O[C@@](O)(C(=O)C(=O)N3CCCC[C@H]3C(=O)O[C@H](/C(C)=C/[C@@H]3CC[C@@H](O)[C@H](OC)C3)[C@H](C)[C@@H](O)CC1=O)[C@H](C)C[C@@H]2OC` [Tacrolimus], the “absolute EC50 for viability” value [1] was > 10 µM and the drug sensitivity score [2] was 1.8.

In the case of `CCc1nc(C(N)=O)c(Nc2ccc(N3CCC(N4CCN(C)CC4)CC3)c(OC)c2)nc1NC1CCOCC1` [Gilteritinib], the “absolute EC50 for viability” value [1] is reported as > 1 µM and the drug sensitivity score [2] is reported as 0.8.

`COc1cc(OC2CCN(C)CC2)ccc1Nc1ncc2c(n1)n(C1CCCC1)c(=O)n2C` [AZ 3146] was tested, and the “absolute EC50 for viability” value [1] was > 10 µM and the drug sensitivity score [2] was 2.9.

`C[C@@H](Oc1ccc2[nH]nc(/C=C/c3cnn(CCO)c3)c2c1)c1c(Cl)cncc1Cl` was tested, and the “absolute EC50 for viability” value [1] was > 1 µM and the drug sensitivity score [2] was 3.6.

In the case of `NC[C@@](O)(c1ccc(Cl)cc1)c1ccc(-c2cn[nH]c2)cc1`, the “absolute EC50 for viability” value [1] is reported as > 10 µM and the drug sensitivity score [2] is reported as 3.3.

In the case of `CC(C)c1c(C(=O)Nc2ccccc2)c(-c2ccccc2)c(-c2ccc(F)cc2)n1CC[C@@H](O)C[C@@H](O)CC(=O)O` [Atorvastatin], the “absolute EC50 for viability” value [1] is reported as 8.18 µM and the drug sensitivity score [2] is reported as 3.1.

With `C/C(=C\c1csc(C)n1)[C@@H]1C[C@@H]2O[C@]2(C)CCC[C@H](C)[C@H](O)[C@@H](C)C(=O)C(C)(C)[C@@H](O)CC(=O)N1` [Ixabepilone] the “absolute EC50 for viability” value [1] was > 1 µM and the drug sensitivity score [2] was 0.5.

`O=C(NOCCO)c1ccc2cncn2c1Nc1ccc(I)cc1F` [GDC-0623] was tested, and the “absolute EC50 for viability” value [1] was > 2.5 µM and the drug sensitivity score [2] was 0.

With `O=C(c1cc(Cc2n[nH]c(=O)c3ccccc23)ccc1F)N1CCN(C(=O)C2CC2)CC1` [Olaparib] the “absolute EC50 for viability” value [1] was > 10 µM and the drug sensitivity score [2] was 2.1.

In the case of `CC(C)(C)c1cnc(CSc2cnc(NC(=O)C3CCNCC3)s2)o1` [SNS-032], the “absolute EC50 for viability” value [1] is reported as > 10 µM and the drug sensitivity score [2] is reported as 12.8.

`COc1cc2c(cc1OC(C)C)[C@H](c1ccc(Cl)cc1)N(c1ccc(N(C)C[C@H]3CC[C@H](N4CCN(C)C(=O)C4)CC3)cc1)C(=O)C2` [NVP-CGM097] was tested, and the “absolute EC50 for viability” value [1] was 4.61 µM and the drug sensitivity score [2] was 9.2.

With `CCCCNc1ncc(C(=O)NCc2ccc(-n3ccnc3)cc2)c(NC2CCC(O)CC2)n1` (stereo not given) [UNC2881] the “absolute EC50 for viability” value [1] was > 2.5 µM and the drug sensitivity score [2] was 0.1.

With `CN1CC[C@@H](NC(=O)Nc2ccc(C#N)cc2)C[C@@H]1c1nc2ccccc2[nH]1` [Glasdegib] the “absolute EC50 for viability” value [1] was > 1 µM and the drug sensitivity score [2] was 0.

In the case of `O=C1Cc2cc(C(=O)NC3C[C@H]4CC[C@@H](C3)N4S(=O)(=O)CC3CCN(CCCC(F)(F)F)CC3)c(Cl)cc2N1` (stereo not given in full), the “absolute EC50 for viability” value [1] is reported as > 10 µM and the drug sensitivity score [2] is reported as 0.

`CCC(C)n1ncn(-c2ccc(N3CCN(c4ccc(OCC5COC(Cn6cncn6)(c6ccc(Cl)cc6Cl)O5)cc4)CC3)cc2)c1=O` (stereo not given) [Itraconazole] was tested, and the “absolute EC50 for viability” value [1] was > 5 µM and the drug sensitivity score [2] was 1.3.

`C=CCc1cccc(/C=N/NC(=O)CN2CCN(Cc3ccccc3)CC2)c1O` [PAC-1] was tested, and the “absolute EC50 for viability” value [1] was > 10 µM and the drug sensitivity score [2] was 0.5.

`C=CC(=O)Nc1cc(Nc2nccc(-c3cn(C)c4ccccc34)n2)c(OC)cc1N(C)CCN(C)C` [Osimertinib] was tested, and the “absolute EC50 for viability” value [1] was > 2.5 µM and the drug sensitivity score [2] was 1.5.

`O=C(CCCCCCNC(=O)c1cnc(N(c2ccccc2)c2ccccc2)nc1)NO` [Rocilinostat] was tested, and the “absolute EC50 for viability” value [1] was > 10 µM and the drug sensitivity score [2] was 1.8.

In the case of `CCC1=C[C@@H]2CN(C1)Cc1c([nH]c3ccccc13)[C@@](C(=O)OC)(c1cc3c(cc1OC)N(C)[C@H]1[C@@](O)(C(=O)OC)[C@H](OC(C)=O)[C@]4(CC)C=CCN5CC[C@]31[C@@H]54)C2` [Vinorelbine], the “absolute EC50 for viability” value [1] is reported as 1.12 µM and the drug sensitivity score [2] is reported as 16.5.

For `CC1CCC(n2c3cnccc3c3cnc(Nc4ccc5c(n4)CCN(C(=O)CO)C5)nc32)CC1` (stereo not given) [AMG-925], the “absolute EC50 for viability” value [1] was > 1 µM and the drug sensitivity score [2] was 0.

For `Clc1ccc(Nc2nnc(Cc3ccncc3)c3ccccc23)cc1` [Vatalanib], the “absolute EC50 for viability” value [1] was > 10 µM and the drug sensitivity score [2] was 0.

With `O=C(Nc1cccc(Nc2ncc(Br)c(NCCc3cnc[nH]3)n2)c1)N1CCCC1` [BX-912] the “absolute EC50 for viability” value [1] was 2.17 µM and the drug sensitivity score [2] was 6.7.

For `O=C(O)C(=O)O.[NH-][C@@H]1CCCC[C@H]1[NH-].[Pt+2]` [Oxaliplatin], the “absolute EC50 for viability” value [1] was > 100 µM and the drug sensitivity score [2] was 0.7.

For `N.N.[Cl][Pt][Cl]` [Cisplatin], the “absolute EC50 for viability” value [1] was 48.5 µM and the drug sensitivity score [2] was 3.6.

With `Oc1ccc2c(c1)CC[C@H](c1ccccc1)[C@@H]2c1ccc(OCCN2CCCC2)cc1` [Lasofoxifene] the “absolute EC50 for viability” value [1] was > 1 µM and the drug sensitivity score [2] was 0.4.

In the case of `C=CCN(/C=C1/C(=O)O[C@H](COC)[C@@]2(C)C1=C(O)C(=O)C1=C2[C@H](OC(C)=O)C[C@]2(C)C(=O)CC[C@@H]12)CC=C` [Sonolisib], the “absolute EC50 for viability” value [1] is reported as > 10 µM and the drug sensitivity score [2] is reported as 0.

With `O=c1ncn2nc(Sc3ccc(F)cc3F)ccc2c1-c1c(Cl)cccc1Cl` [Neflamapimod] the “absolute EC50 for viability” value [1] was > 10 µM and the drug sensitivity score [2] was 0.5.

`CC[C@H](C)C(=O)O[C@H]1C[C@@H](C)C=C2C=C[C@H](C)[C@H](CC[C@@H]3C[C@@H](O)CC(=O)O3)[C@H]21` [Lovastatin] was tested, and the “absolute EC50 for viability” value [1] was > 10 µM and the drug sensitivity score [2] was 0.

`Nc1nc(Cl)nc2c1ncn2[C@H]1C[C@H](O)[C@@H](CO)O1` [Cladribine] was tested, and the “absolute EC50 for viability” value [1] was > 1 µM and the drug sensitivity score [2] was 2.3.

In the case of `O=C(O)C1(C(=O)O)CCC1.[NH2-].[NH2-].[Pt+2]` [Carboplatin], the “absolute EC50 for viability” value [1] is reported as > 100 µM and the drug sensitivity score [2] is reported as 2.5.

`NC(=O)NO` [Hydroxyurea] was tested, and the “absolute EC50 for viability” value [1] was > 1000 µM and the drug sensitivity score [2] was -2.9.

With `CO[C@@]12[C@H](COC(N)=O)C3=C(C(=O)C(C)=C(N)C3=O)N1C[C@@H]1N[C@@H]12` [Mitomycin] the “absolute EC50 for viability” value [1] was > 10 µM and the drug sensitivity score [2] was 0.

`C[C@]12CC[C@H](O)CC1=CC[C@@H]1[C@@H]2CC[C@]2(C)C(c3cccnc3)=CC[C@@H]12` [Abiraterone] was tested, and the “absolute EC50 for viability” value [1] was > 5 µM and the drug sensitivity score [2] was 0.

In the case of `CC(=O)c1cc2c(o1)C(=O)c1ccccc1C2=O` [Napabucasin], the “absolute EC50 for viability” value [1] is reported as 0.64 µM and the drug sensitivity score [2] is reported as 17.6.

For `COCCNCc1ccc(-c2cc3nccc(Oc4ccc(NC(=S)NC(=O)Cc5ccc(F)cc5)cc4F)c3s2)nc1` [Glesatinib], the “absolute EC50 for viability” value [1] was > 2.5 µM and the drug sensitivity score [2] was 5.1.

`CN(C)C/C=C/C(=O)Nc1cccc(C(=O)Nc2cccc(Nc3ncc(Cl)c(-c4c[nH]c5ccccc45)n3)c2)c1` [THZ2] was tested, and the “absolute EC50 for viability” value [1] was 2.71 µM and the drug sensitivity score [2] was 11.1.

`CN(C)CCCOc1ccc(-c2ccc3ncc4c(c3c2)n(C2CCOCC2)c(=O)n4C)cn1` [AZD0156] was tested, and the “absolute EC50 for viability” value [1] was > 1 µM and the drug sensitivity score [2] was 1.9.

For `C=CC(=O)N1CCC(Oc2cc3c(Nc4ccc(Cl)c(Cl)c4F)ncnc3cc2OC)CC1` [Poziotinib], the “absolute EC50 for viability” value [1] was > 1 µM and the drug sensitivity score [2] was 4.2.

With `N#CC(c1ccnc(OCc2ccc(CN3CCOCC3)cc2)n1)c1nc2ccccc2s1` (stereo not given) [Bentamapimod] the “absolute EC50 for viability” value [1] was > 10 µM and the drug sensitivity score [2] was 0.

With `CCCCOc1nc(N)c2c(n1)N(Cc1cccc(CN3CCCC3)c1)CC(=O)N2` [Vesatolimod] the “absolute EC50 for viability” value [1] was > 10 µM and the drug sensitivity score [2] was 0.

`Cn1cnc2c(F)c(Nc3ccc(Br)cc3Cl)c(C(=O)NOCCO)cc21` [Selumetinib] was tested, and the “absolute EC50 for viability” value [1] was > 10 µM and the drug sensitivity score [2] was 4.9.

`O=C1NC(=O)[C@@H](c2cn3c4c(cccc24)CCC3)[C@@H]1c1c[nH]c2ccccc12` [Tivantinib] was tested, and the “absolute EC50 for viability” value [1] was > 1 µM and the drug sensitivity score [2] was 0.

For `CO[C@H]1C[C@@H]2CC[C@@H](C)[C@@](O)(O2)C(=O)C(=O)N2CCCC[C@H]2C(=O)O[C@H]([C@H](C)C[C@@H]2CC[C@@H](OCCO)[C@H](OC)C2)CC(=O)[C@H](C)/C=C(\C)[C@@H](O)[C@@H](OC)C(=O)[C@H](C)C[C@H](C)/C=C/C=C/C=C/1C` [Everolimus], the “absolute EC50 for viability” value [1] was > 0.1 µM and the drug sensitivity score [2] was 5.2.

`Cc1cc2c(C(C)C)c(O)c(O)c(C=O)c2c(O)c1-c1c(C)cc2c(C(C)C)c(O)c(O)c(C=O)c2c1O` [AT 101] was tested, and the “absolute EC50 for viability” value [1] was 28.1 µM and the drug sensitivity score [2] was 6.1.

For `COc1cc(Nc2ncc(F)c(Nc3ccc4c(n3)N(COP(=O)(O)O)C(=O)C(C)(C)O4)n2)cc(OC)c1OC` [Fostamatinib], the “absolute EC50 for viability” value [1] was > 2.5 µM and the drug sensitivity score [2] was 5.2.
